Source: article PMC10301896 (Pharmaceutics, 2023)
Where a name gives a salt, the structure may show the parent alone.

Legend:
[1] = in vivo; details: for AUC(0-t) / AUC(0-inf) / bioavailability / Cmax / Tmax: male, albino, rabbit, in vivo, po, 150 mg/kg, TC 150 mg/kg orally; for AUC(0-t): AUC0–6h; for AUC(0-inf): AUC0–∞; for bioavailability: Bioavailability (absolute oral)
Protocol: Rabbits were supplied solid food for rabbits (CR-3M, CLEA Japan, Inc., Tokyo, Japan), and the average amount of CR-3M that each rabbit ingested was 100–110 g/day. CR-3M contains various vitamins and cationic metals including Ca, Mg, and iron (Fe^2+, Fe^3+) in addition to various energy sources. […] Coprophagy was not prevented in control rabbits.
After administration orally by stomach intubation, blood samples (100 μL each) were taken periodically from the ear vein at 0.25, 0.5, 1, 2, 4 and 6 h. Blood samples were centrifuged at 3000× g for 10 min to obtain plasma samples.

[2] = control rabbits
[3] = in vivo; details: male, albino, rabbit, iv, 10 mg/kg
[4] = cited from earlier work
[5] = Chelation with Al3+ ion in vitro (precipitation with AlCl3); type: physicochemical; details: drug 50 μM, pH 6.5, 30 min, 24 °C
Protocol: AlCl3 was also dissolved in the same buffer at a concentration of 50 μM, 100 μM, 200 μM, 1 mM, or 2 mM, and each drug solution and AlCl3 solution were mixed at an equal volume. The mixture solution was shaken, stood for 30 min at 24 °C and centrifuged. The supernatant was filtrated through a syringe filter with 0.22 μm of pore size (Millipore, Tokyo, Japan).

## CN(C)[C@@H]1C(O)=C(C(N)=O)C(=O)[C@@]2(O)C(O)=C3C(=O)c4c(O)cccc4[C@@](C)(O)[C@H]3C[C@@H]12 [TC, tetracycline hydrochloride]
[1]; at a lower dose than 30 mg/kg, rabbits
  TC in plasma after oral administration: not detected
[1]; EDTA-treated rabbits
  AUC(0-t): 4680 ± 930 ng·h/mL
  AUC(0-inf): 6490 ± 1080 ng·h/mL
  bioavailability: 4.9 ± 0.81%
  Cmax: 1120 ± 280 ng/mL
  Tmax: 2 h
[1]; control rabbits
  AUC(0-t): 2540 ± 910 ng·h/mL
  AUC(0-inf): 3390 ± 1260 ng·h/mL
  bioavailability: 2.56 ± 0.95%
  Cmax: 730 ± 220 ng/mL
  Tmax: 1.67 ± 0.58 h
[2]; […] iv infusion, LFX 20, CFX 30, TC 10 mg/kg
  β: 0.28 ± 0.10 h⁻¹
[2]; iv infusion
  Total plasma clearance (CLtotal), Doseiv/AUC0–∞: 18.83 mL/min/kg
[3]
  AUC(0-t): 7570 ± 1380 ng·h/mL
[4]; LFX 200–750 mg, CFX 200–1000 mg, TC 250 mg, ref references listed in the discussion section
  Oral bioavailabilities in humans: 77–88% (250 mg)
[4]; humans, dose of 250 mg
  Absolute oral bioavailability: 77–88%
[5]; AlCl3 25 μM
  Precipitation (%): 63.2 ± 21.3%
[5]; AlCl3 50 μM
  Precipitation (%): 84.0 ± 13.9%
[5]; AlCl3 100 μM
  Precipitation (%): 91.6 ± 7.3%
[5]; AlCl3 500 μM
  Precipitation (%): 96.2 ± 5.7%
[5]; AlCl3 1 mM
  Precipitation (%): 99.4 ± 1.19%
